According to PMC7150891, “Mertansine Inhibits mRNA Expression and Enzyme Activities of Cytochrome P450s and Uridine 5′-Diphospho-Glucuronosyltransferases in Human Hepatocytes and Liver Microsomes” (Pharmaceutics, 2020):
“Also recorded” adds a separate entry of the source.

Tests used:
Type in all cases: in vitro ADME
[1] = molecular target: T1, UGT2B7 (Homo sapiens, UniProt P16662); test: Inhibition of UGT2B7-catalyzed naloxone 3-β-D-glucuronidation in ultrapooled human liver microsomes
T1 construct: ultrapooled human liver microsomes (0.2 mg/mL); from tissue; host or cells: human liver microsomes (ultrapooled)
T1 sequence (P16662 24-529): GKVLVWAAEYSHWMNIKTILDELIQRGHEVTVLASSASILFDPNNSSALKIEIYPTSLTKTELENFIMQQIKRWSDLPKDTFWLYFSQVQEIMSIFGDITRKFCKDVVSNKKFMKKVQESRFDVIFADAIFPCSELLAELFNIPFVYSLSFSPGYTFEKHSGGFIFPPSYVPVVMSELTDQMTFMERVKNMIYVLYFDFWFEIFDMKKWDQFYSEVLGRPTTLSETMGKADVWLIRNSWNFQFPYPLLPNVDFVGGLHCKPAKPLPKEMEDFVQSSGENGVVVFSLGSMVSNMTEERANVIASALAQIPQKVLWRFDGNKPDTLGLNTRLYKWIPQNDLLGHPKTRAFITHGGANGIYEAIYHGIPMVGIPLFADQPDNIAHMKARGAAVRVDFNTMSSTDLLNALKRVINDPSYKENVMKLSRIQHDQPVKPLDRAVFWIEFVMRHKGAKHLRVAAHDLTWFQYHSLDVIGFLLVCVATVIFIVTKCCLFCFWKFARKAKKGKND
Method: (§1) The inhibitory potential of mertansine on UGT1A1, UGT1A3, UGT1A4, UGT1A6, UGT1A9, and UGT2B7 activities was evaluated using liquid chromatography–tandem mass spectrometry (LC-MS/MS) with a cocktail of UGT substrates and ultrapooled human liver microsomes. Each incubation mixture was prepared to a final volume of 100 μL as follows: ultrapooled human liver microsomes (0.2 mg/mL), 5 mM UDPGA, 10 mM magnesium chloride, alamethicin (25 μg/mL), 50 mM Tris buffer (pH 7.4), various concentrations of mertansine in methanol (final concentrations of 0.01–50 μM), and the cocktail sets of UGT enzyme-specific substrates. Two cocktail sets were used: set A contained 0.5 μM SN-38 for UGT1A1, 2 μM chenodeoxycholic acid for UGT1A3, and 0.5 μM trifluoperazine for UGT1A4; and set B contained 1 μM N-acetylserotonin for UGT1A6, 0.2 μM mycophenolic acid for UGT1A9, and 1 μM naloxone for UGT2B7. The reactions were initiated by adding UDPGA and incubated in a shaking water bath for 60 min at 37 °C. Reactions were terminated by adding 50 μL of ice-cold acetonitrile containing internal standards (IS, propofol glucuronide for set A and meloxicam for set B). Incubation mixtures were centrifuged at 13,000 g for 8 min at 4 °C. Next, 50 μL of each supernatant of sets A and B was mixed, and aliquots (5 μL) were analyzed using LC-MS/MS. […]

[2] = molecular target: T2, UGT1A4 (Homo sapiens, UniProt P22310); test: Inhibition of UGT1A4-catalyzed trifluoperazine N-β-D-glucuronidation in ultrapooled human liver microsomes
T2 construct: ultrapooled human liver microsomes (0.2 mg/mL); from tissue; host or cells: human liver microsomes (ultrapooled)
T2 sequence (P22310 29-534): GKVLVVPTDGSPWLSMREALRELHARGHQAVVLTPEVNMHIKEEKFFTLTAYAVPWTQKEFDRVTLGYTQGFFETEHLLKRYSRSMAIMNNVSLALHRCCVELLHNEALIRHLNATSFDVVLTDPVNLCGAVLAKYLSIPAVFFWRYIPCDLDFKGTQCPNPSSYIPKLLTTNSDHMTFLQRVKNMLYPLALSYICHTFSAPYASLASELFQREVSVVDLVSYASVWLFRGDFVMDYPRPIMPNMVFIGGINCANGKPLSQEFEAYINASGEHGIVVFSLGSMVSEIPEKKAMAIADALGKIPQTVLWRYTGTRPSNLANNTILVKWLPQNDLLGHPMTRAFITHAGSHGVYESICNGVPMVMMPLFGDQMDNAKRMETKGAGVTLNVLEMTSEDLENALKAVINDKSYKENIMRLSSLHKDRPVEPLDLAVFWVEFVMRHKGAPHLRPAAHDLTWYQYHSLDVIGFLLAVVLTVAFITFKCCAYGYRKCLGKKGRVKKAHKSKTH
Method: as §1, with “Reactions were terminated by adding 50 μL of ice-cold acetonitrile containing internal standards (IS, propofol glucuronide for set A and meloxicam for set B). Incubation mixtures were centrifuged at 13,000 g for 8 min at 4 °C.” left out
(§2) The LC-MS/MS system was comprised of an Agilent 6495 triple quadrupole mass spectrometer coupled with an Agilent 1290 Infinity system (Agilent Technologies, Wilmington, DE, USA). […] The electrospray ionization (ESI) source settings in both positive and negative ion modes were as follows: gas temperature, 200 °C; gas flow, 14 L/min; nebulizer, 40 psi; sheath gas temperature, 380 °C; sheath gas flow, 11 L/min; capillary voltage, 4500 V; and nozzle voltage, 500 V. Each metabolite was quantified via selected reaction monitoring in the negative ion mode (chenodeoxycholic acid 24-acyl-β-glucuronide, m/z 567.1 to 391.2; mycophenolic acid β-D-glucuronide, m/z 495.0 to 319.0; propofol glucuronide (IS), m/z 353.0 to 177.0) and in the positive ion mode (SN-38 glucuronide, m/z 568.9 to 392.9; trifluoperazine N-β-D-glucuronide, m/z 583.9 to 407.9; N-acetylserotonin β-D-glucuronide, m/z 394.0 to 219.0; naloxone 3-β-D-glucuronide, m/z 503.9 to 309.9; meloxicam (IS), m/z 351.9 to 115.0). […]

[3] = molecular target: T3, UGT1A1 (Homo sapiens, UniProt P22309); test: Inhibition of UGT1A1-catalyzed SN-38 glucuronidation in ultrapooled human liver microsomes
T3 construct: ultrapooled human liver microsomes (0.2 mg/mL); from tissue; host or cells: human liver microsomes (ultrapooled)
T3 sequence (P22309 26-533): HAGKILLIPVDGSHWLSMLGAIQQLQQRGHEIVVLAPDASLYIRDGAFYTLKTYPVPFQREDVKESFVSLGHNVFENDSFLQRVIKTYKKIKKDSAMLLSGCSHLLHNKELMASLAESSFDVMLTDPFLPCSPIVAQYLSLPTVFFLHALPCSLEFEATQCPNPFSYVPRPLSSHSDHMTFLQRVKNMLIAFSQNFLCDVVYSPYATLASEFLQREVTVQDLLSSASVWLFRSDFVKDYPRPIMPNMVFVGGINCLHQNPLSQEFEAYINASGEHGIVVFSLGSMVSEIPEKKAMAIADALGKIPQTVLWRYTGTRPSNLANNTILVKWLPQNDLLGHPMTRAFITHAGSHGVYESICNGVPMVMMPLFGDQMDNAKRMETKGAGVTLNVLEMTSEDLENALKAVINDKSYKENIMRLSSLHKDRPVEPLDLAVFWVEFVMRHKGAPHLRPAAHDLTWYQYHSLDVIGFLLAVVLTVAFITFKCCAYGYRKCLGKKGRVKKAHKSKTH
Method: as §1, with “Reactions were terminated by adding 50 μL of ice-cold acetonitrile containing internal standards (IS, propofol glucuronide for set A and meloxicam for set B). Incubation mixtures were centrifuged at 13,000 g for 8 min at 4 °C.” left out
as §2

[4] = human liver microsomes, Dixon plot

COc1cc2cc(c1Cl)N(C)C(=O)CC(OC(=O)C(C)N(C)C(=O)CCS)C1(C)OC1C(C)C1CC(O)(NC(=O)O1)C(OC)C=CC=C(C)C2 (centres unmarked) [mertansine, Mertansine]
Inhibition of UGT2B7 enzyme activity ([1]; human liver microsomes, mertansine at 50 µM): no inhibition; also recorded: negligibly inhibited
IC50, naloxone 3-β-D-glucuronidation (UGT2B7) ([1]; ultrapooled human liver microsomes, 1 µM naloxone (cocktail)): No inhibition
Inhibition Mode, UGT1A4 [2, 4]: competitively inhibited; also recorded: competitive inhibitor
Ki ([2]; human liver microsomes, trifluoperazine 0.2–2 µM): 21.2 µM
IC50 ([2]; ultrapooled human liver microsomes, 0.5 µM trifluoperazine (cocktail)): 23.3 µM
Inhibition Mode, UGT1A1 [3, 4]: noncompetitively inhibited; also recorded: noncompetitive inhibitor
Ki ([3]; human liver microsomes, SN-38 0.2–2 µM): 13.5 µM
IC50 ([3]; ultrapooled human liver microsomes, 0.5 µM SN-38 (cocktail)): 16.2 µM
